Assay results: US20240150293A1, “SPIROCYCLOHEXANE DERIVATIVES, PHARMACEUTICAL COMPOSITIONS CONTAINING THEM AND THEIR USES AS ANTI-APOPTOTIC INHIBITORS” (LES LABORATOIRES SERVIER, priority 2021, published 2024)
Like-named read-outs stand apart in the source and are kept apart here.

What was measured:
[1] = test system: H929 multiple myeloma tumor line; test: In vitro cytotoxicity, MTT assay (Example B, Method A); type: cell-based; settings: H929 cells, 48 hours exposure, read-out: C50
Protocol: The cytotoxicity studies were carried out on the H929 multiple myeloma tumor line.
The cells are distributed onto microplates and exposed to the test compounds for 48 hours. The cell viability is then quantified by a colorimetric assay, the Microculture Tetrazolium Assay (Carmichael et al, Cancer Res. 1987, 47, 939-942).
The results are expressed in C50 which means concentration corresponding to […] of effect/inhibition.

Mcl-1 protein = Mcl-1 protein (UniProtKB Q07820) (Homo sapiens (Human), UniProt Q07820); test: Inhibition of Mcl-1 by the fluorescence polarisation assay (Example A, Method A); type: binding; settings: fluorescence polarization assay
Summary of the method: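 Protein (5 nM) and fluorescein-tagged peptide tracer (1 nM) incubated with 11-point compound series for 2 h at room temperature in HEPES/NaCl/Tween 20 buffer, pH 7.4, 5% DMSO. Displacement read as decrease in polarisation; IC50 fitted by 4-parameter logistic, converted to Ki (cKi or eKi).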

Sequence of Mcl-1 protein (Q07820 whole entry): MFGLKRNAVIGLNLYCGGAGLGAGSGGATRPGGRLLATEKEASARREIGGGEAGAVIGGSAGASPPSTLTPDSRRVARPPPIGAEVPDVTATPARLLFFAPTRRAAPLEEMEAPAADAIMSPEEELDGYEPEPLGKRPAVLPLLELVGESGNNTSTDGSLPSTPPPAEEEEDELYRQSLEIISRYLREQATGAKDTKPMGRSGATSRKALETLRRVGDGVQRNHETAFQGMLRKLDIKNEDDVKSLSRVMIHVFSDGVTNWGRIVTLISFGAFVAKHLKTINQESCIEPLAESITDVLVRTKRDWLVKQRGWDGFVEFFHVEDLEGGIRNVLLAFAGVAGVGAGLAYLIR

Row | Compound | IC50 ([1]; Homo sapiens, NCI-H929, 48 h) | Ki (Mcl-1 protein) | IC50 [1]
1 | C[C@@H](COc1ccncc1C1CC1(C)C)C[C@H]1Cc2ccccc2[C@]12CC[C@@](Nc1cccc(Cl)c1)(C(=O)O)CC2 (stereo partly drawn) [Example 580, (1r,2′S,4S)-4-(3-chloroanilino)-2′-[(2R)-3-{[3-(2,2-dimethylcyclopropyl)pyridin-4-yl]oxy}-2-methylpropyl]-2′,3′-dihydrospiro[cyclohexane-1,1′-indene]-4-carboxylic acid] | 5120 nM | 92.7 nM | –
2 | CC(C)C(COc1ccccc1)CC1Cc2ccccc2[C@]12CC[C@@](Nc1cccc(Cl)c1)(C(=O)O)CC2 (single isomer, unassigned) [Example 531, (1r,4r)-4-(3-chloroanilino)-2′-[3-methyl-2-(phenoxymethyl)butyl]-2′,3′-dihydrospiro[cyclohexane-1,1′-indene]-4-carboxylic acid] | – | 5970 nM | 15900 nM
3 | C[C@@H](COc1ccnc2c1CCCO2)C[C@H]1Cc2ccccc2[C@]12CC[C@@](Nc1cccc(Cl)c1)(C(=O)O)CC2 [Example 635, (1r,2′S,4S)-4-(3-chloroanilino)-2′-{(2R)-3-[(3,4-dihydro-2H-pyrano[2,3-b]pyridin-5-yl)oxy]-2-methylpropyl}-2′,3′-dihydrospiro[cyclohexane-1,1′-indene]-4-carboxylic acid] | 4590 nM | 44.8 nM | –
4 | CC(C)C(COc1ccncc1)CC1Cc2ccccc2[C@]12CC[C@@](Nc1cccc(Cl)c1)(C(=O)O)CC2 (single isomer, unassigned) [Example 533, (1r,4r)-4-(3-chloroanilino)-2′-(3-methyl-2-{[(pyridin-4-yl)oxy]methyl}butyl)-2′,3′-dihydrospiro[cyclohexane-1,1′-indene]-4-carboxylic acid] | – | 785 nM | 14500 nM
5 | O=C(O)[C@]1(Nc2cccc(Cl)c2)CC[C@]2(CC1)C(c1cccc(OCc3cccnc3)c1)=Cc1ccccc12 [Example 363, (1s,4s)-4-(3-chloroanilino)-2′-{3-[(pyridin-3-yl)methoxy]phenyl}spiro[cyclohexane-1,1′-indene]-4-carboxylic acid] | 30000 nM | 227 nM | –
6 | CC(C)COc1ccc2c(c1)[C@]1(CC[C@@](Nc3cccc(Cl)c3)(C(=O)O)CC1)C(c1cccc(Oc3ccccc3)c1)C2 (single isomer, unassigned) [Example 385, (1r,4r)-4-(3-chloroanilino)-6′-(2-methylpropoxy)-2′-(3-phenoxyphenyl)-2′,3′-dihydrospiro[cyclohexane-1,1′-indene]-4-carboxylic acid] | 18900 nM | 810 nM | –
7 | C[C@@H](COc1cccnc1)C[C@H]1Cc2ccccc2[C@]12CC[C@@](Nc1cccc(Cl)c1)(C(=O)O)CC2 [Example 568, (1r,2′S,4S)-4-(3-chloroanilino)-2′-{(2R)-2-methyl-3-[(pyridin-3-yl)oxy]propyl}-2′,3′-dihydrospiro[cyclohexane-1,1′-indene]-4-carboxylic acid] | 18300 nM | 438 nM | –
8 | CCOc1ccc2c(c1)[C@]1(CC[C@@](Nc3cccc(Cl)c3)(C(=O)O)CC1)C(c1cccc(Oc3ccccc3)c1)C2 (single isomer, unassigned) [Example 386, (1r,4r)-4-(3-chloroanilino)-6′-ethoxy-2′-(3-phenoxyphenyl)-2′,3′-dihydrospiro[cyclohexane-1,18′-indene]-4-carboxylic acid] | 7920 nM | 161 nM | –
9 | O=C(O)[C@]1(Nc2cccc(Cl)c2)CC[C@@]2(CC1)c1ccccc1CC2CCCOc1ccnc2c1CCC2 (stereo partly drawn) [Example 452, (1r,4r)-4-(3-chloroanilino)-2′-{3-[(6,7-dihydro-5H-cyclopenta[b]pyridin-4-yl)oxy]propyl}-2′,3′-dihydrospiro[cyclohexane-1,1′-indene]-4-carboxylic acid] | 2440 nM | 30 nM | –
10 | C[C@@H](COc1ccnc2c1CCCCC2O)C[C@H]1Cc2ccccc2[C@]12CC[C@@](Nc1cccc(Cl)c1)(C(=O)O)CC2 (stereo partly drawn) [Example 634, (1r,2′S,4S)-4-(3-chloroanilino)-2′-{(2R)-3-[(9-hydroxy-6,7,8,9-tetrahydro-5H-cyclohepta[b]pyridin-4-yl)oxy]-2-methylpropyl}-2′,3′-dihydrospiro[cyclohexane-1,1′-indene]-4-carboxylic acid] | 4230 nM | 86.8 nM | –
11 | O=C(O)[C@]1(Nc2cccc(Cl)c2)CC[C@@]2(CC1)c1ccccc1C[C@H]2c1cccc(Oc2ccccc2)c1 [Example 323, (1r,2′S,4S)-4-(3-chloroanilino)-2′-(3-phenoxyphenyl)-2′,3′-dihydrospiro[cyclohexane-1,1′-indene]-4-carboxylic acid] | 10500 nM | 106 nM | –
12 | O=C(O)[C@]1(Nc2cccc(Cl)c2)CC[C@]2(CC1)C(CCCOc1ccnc3ccsc13)=Cc1ccccc12 [Example 442, (1r,4r)-4-(3-chloroanilino)-2′-{3-[(thieno[3,2-b]pyridin-7-yl)oxy]propyl}spiro[cyclohexane-1,1′-indene]-4-carboxylic acid] | 5790 nM | 107 nM | –
13 | O=C(O)[C@]1(Nc2cccc(Cl)c2)CC[C@@]2(CC1)c1ccccc1CC2CCCOc1ccnc2ccccc12 (stereo partly drawn) [Example 444, (1r,4r)-4-(3-chloroanilino)-2′-{3-[(quinolin-4-yl)oxy]propyl}-2′,3′-dihydrospiro[cyclohexane-1,1′-indene]-4-carboxylic acid] | 5440 nM | 85.2 nM | –
14 | CC(C)C(COc1ccccc1)CC1Cc2ccccc2[C@]12CC[C@@](Nc1cccc(Cl)c1)(C(=O)O)CC2 (single isomer, unassigned) [Example 530, (1r,4r)-4-(3-chloroanilino)-2′-[3-methyl-2-(phenoxymethyl)butyl]-2′,3′-dihydrospiro[cyclohexane-1,1′-indene]-4-carboxylic acid] | 15300 nM | 2050 nM | –
15 | CC(C)C(COc1ccncc1)CC1Cc2ccccc2[C@]12CC[C@@](Nc1cccc(Cl)c1)(C(=O)O)CC2 (single isomer, unassigned) [Example 535, (1r,4r)-4-(3-chloroanilino)-2′-(3-methyl-2-{[(pyridin-4-yl)oxy]methyl}butyl)-2′,3′-dihydrospiro[cyclohexane-1,1′-indene]-4-carboxylic acid] | – | 2280 nM | 30000 nM
16 | O=C(O)[C@]1(Nc2cccc(Cl)c2)CC[C@]2(CC1)C(CCCCc1ccccc1)=Cc1ccccc12 [Example 393, (1r,4r)-4-(3-chloroanilino)-2′-(4-phenylbutyl)spiro[cyclohexane-1,1′-indene]-4-carboxylic acid] | 12000 nM | 150 nM | –
17 | CC[C@H](COc1ccnc2ccsc12)C[C@H]1Cc2ccccc2[C@]12CC[C@@](Nc1cccc(Cl)c1)(C(=O)O)CC2 [Example 537, (1r,2′S,4S)-4-(3-chloroanilino)-2′-[(2S)-2-{[(thieno[3,2-b]pyridin-7-yl)oxy]methyl}butyl]-2′,3′-dihydrospiro[cyclohexane-1,1′-indene]-4-carboxylic acid] | 16000 nM | 575 nM | –
18 | Cc1cnccc1OCCC[C@@H]1Cc2ccccc2[C@]12CC[C@@](Nc1cccc(Cl)c1)(C(=O)O)CC2 [Example 448, (1r,2′R,4R)-4-(3-chloroanilino)-2′-{3-[(3-methylpyridin-4-yl)oxy]propyl}-2′,3′-dihydrospiro[cyclohexane-1,1′-indene]-4-carboxylic acid] | 10500 nM | 65.4 nM | –
19 | O=C(O)[C@]1(Nc2cccc(Cl)c2)CC[C@@]2(CC1)c1ccccc1C[C@H]2C[C@H](COc1ccnc2ccsc12)c1ccccc1 [Example 546, (1r,2′R,4R)-4-(3-chloroanilino)-2′-{(2S)-2-phenyl-3-[(thieno[3,2-b]pyridin-7-yl)oxy]propyl}-2′,3′-dihydrospiro[cyclohexane-1,1′-indene]-4-carboxylic acid] | 30000 nM | 1640 nM | –
20 | O=C(O)[C@]1(Nc2cccc(Cl)c2)CC[C@]2(CC1)C(c1ccc(Oc3ccccc3)cc1)=Cc1ccccc12 [Example 341, (1s,4s)-4-(3-chloroanilino)-2′-(4-phenoxyphenyl)spiro[cyclohexane-1,1′-indene]-4-carboxylic acid] | 9260 nM | 159 nM | –
21 | O=C(O)[C@]1(Nc2cccc(Cl)c2)CC[C@@]2(CC1)c1ccccc1CC2CCCOc1ccnc(F)c1 (mixture of isomers) [Example 427, (1r,4r)-4-(3-chloroanilino)-2′-{3-[(2-fluoropyridin-4-yl)oxy]propyl}-2′,3′-dihydrospiro[cyclohexane-1,1′-indene]-4-carboxylic acid] | 17400 nM | 226 nM | –
22 | CC1CCc2nccc(OC[C@H](C)C[C@H]3Cc4ccccc4[C@]34CC[C@@](Nc3cccc(Cl)c3)(C(=O)O)CC4)c2C1 (stereo partly drawn) [Example 651, (1r,2′S,4S)-4-(3-chloroanilino)-2′-{(2R)-2-methyl-3-[(6-methyl-5,6,7,8-tetrahydroquinolin-4-yl)oxy]propyl}-2′,3′-dihydrospiro[cyclohexane-1,1′-indene]-4-carboxylic acid] | 1260 nM | 17.9 nM | –
23 | Cc1c[nH]c2cccc(OCCC[C@H]3Cc4ccccc4[C@]34CC[C@@](Nc3cccc(Cl)c3)(C(=O)O)CC4)c12 [Example 484, (1r,2′S,4S)-4-(3-chloroanilino)-2′-{3-[(3-methyl-1H-indol-4-yl)oxy]propyl}-2′,3′-dihydrospiro[cyclohexane-1,1′-indene]-4-carboxylic acid] | 9640 nM | 759 nM | –
24 | O=C(O)[C@]1(Nc2cccc(Cl)c2)CC[C@@]2(CC1)c1ccccc1C[C@@H]2CCCOc1ccnc2ccsc12 [Example 440, (1r,2′S,4S)-4-(3-chloroanilino)-2′-{3-[(thieno[3,2-b]pyridin-7-yl)oxy]propyl}-2′,3′-dihydrospiro[cyclohexane-1,1′-indene]-4-carboxylic acid] | 3480 nM | 47 nM | –
